Assay results: publication PMC8653149, “Cyclic Analogs of Desferrioxamine E Siderophore for ^68Ga Nuclear Imaging: Coordination Chemistry and Biological Activity in Staphylococcus aureus” (Inorganic Chemistry, 2021)

Columns and labels:
[1] = Ligand protonation constants by potentiometric titration; assay type: physicochemical; conditions: [L] = 1·10^-3 M, T = 25°C, I = 0.1 M NaClO4
Procedure: Potentiometric titrations were performed using an automatic titrator system Titrando 905 (Metrohm) equipped with a 800 Dosino dosing unit and a microburet with a volume of 2 mL. A combined glass electrode was calibrated each day for hydrogen ion concentration by 0.1 M HClO4 with CO2-free 0.1 M NaOH solutions. A stream of high purity grade argon, presaturated with water vapor, passed over the surface of the solution cell, filled with 3 mL of the studied solution. For each system, a minimum of four independent titrations was performed. The purity of ligand and accurate concentration of ligand solution were determined before each experiment with the Gran method[68] by potentiometric titration of the 3 mL sample of the ligand, with [L] ∼ 1 × 10^–3 M. In separate potentiometric titrations, the metal-to-ligand ratio was 1:1, and the concentration of metal was 2 × 10^–3 M. The potentiometric data were refined to obtain the overall Fe(III)-FOXE and Ga(III)-FOXE derivative binding constants (logβFe(III)L, logβGa(III)L). […]
Ligand’s protonation constants
The acid-base properties of investigated ligands were studied by potentiometric technique. The optimized logβ values defined by equations (S1) and (S2) were calculated using […] 1 […]
or Hyperquad 20062 programs (Table S4). For the sake of simplicity charges are omitted in all chemical equilibria given here.
Table S4. Protonation (logβ H) constants for studied ligandsa […]
aConstants determined from potentiometric titrations. Conditions: [L] = 1·10^-3 M, T = 25°C, I = 0.1 M NaClO 4, b Ref 3 […]

[2] = Fe(III) complex stability constants by potentiometric and pH-dependent UV–vis titrations; assay type: physicochemical; conditions: calculated for [L] = 1 × 10^–4, [M] = 1 × 10^–5 at pH 7.4
Procedure: Therefore, the stability constants of the first species formed in solution were determined from the spectrophotometric pH-dependent batch titrations carried out in the pH range of around 0.1–2 (Figure S3), by following the changes in the intense LMCT band of the metal complex. These values were further used as constant values in spectrophotometric or potentiometric titrations carried out in the pH range from 2 to 11 (Figure S3) to get the overall stability constants, logβFeL (Table S5). […] Metal–metal competition titrations were carried out at pH 1.6 for FOX 2-5 and FOX 2-4 and at pH 2 for the rest of the analogs and the native compound.
Potentiometric titrations were performed using an automatic titrator system Titrando 905 (Metrohm) equipped with a 800 Dosino dosing unit and a microburet with a volume of 2 mL. A combined glass electrode was calibrated each day for hydrogen ion concentration by 0.1 M HClO4 with CO2-free 0.1 M NaOH solutions. A stream of high purity grade argon, presaturated with water vapor, passed over the surface of the solution cell, filled with 3 mL of the studied solution. For each system, a minimum of four independent titrations was performed. The purity of ligand and accurate concentration of ligand solution were determined before each experiment with the Gran method[68] by potentiometric titration of the 3 mL sample of the ligand, with [L] ∼ 1 × 10^–3 M. In separate potentiometric titrations, the metal-to-ligand ratio was 1:1, and the concentration of metal was 2 × 10^–3 M. The potentiometric data were refined to obtain the overall Fe(III)-FOXE and Ga(III)-FOXE derivative binding constants (logβFe(III)L, logβGa(III)L).
The absorption measurements (200 nm–800 nm) were performed on a Varian Cary 300 Bio UV–visible spectrophotometer. The solutions were measured in high precision Quartz […] cuvettes (1 and 3 mL) with 1 cm lightpath (Hellma).
Two series of experiments were performed: (i) in the pH range of 0.1–2 and (ii) between pH 2 and 11. In the first series of experiments, (i) the stock solution of the ligand was divided into various batches followed by Fe(III) addition, with a constant total volume of 2 mL, [Fe(III)] = 2 × 10^–4 M, and a metal-to-ligand molar ratio of 1:1. The pH was controlled by concentration of the perchloric acid. After preparation, each solution was allowed to equilibrate for 1 h at 25 °C, and then its UV–vis spectrum was recorded.
The experimental sets with over 140 points collected in the pH range 2–11 for a single potentiometric measurement were imported to the […] software,[69] which uses nonlinear least-squares methods for data treatment. Spectroscopic data were refined using SPECFIT/32 software, which uses factor analysis to reduce the absorbance matrix and to extract the eigenvalues prior to the multiwavelength fit of the reduced data set according to the Marquardt algorithm and adjusts the absorptivity and the stability constants of the species formed at equilibrium.[70]−[72] Standard deviation was used for the calculation of the uncertainties in logβ. Speciation plots were prepared using HYSS software,[73] implementing data gathered in Tables S4, S5, and S8. Raw data was processed using Origin 7.0.

Row | SMILES | protonation constant logβ, H2L + H+ ↔ H3L [1] | protonation constant logβ, HL + H+ ↔ H2L [1] | protonation constant logβ, L + H+ ↔ HL [1] | pFe(III) [2]
1 | O=C1CCN(O)C(=O)CCNC(=O)CCN(O)C(=O)CCNC(=O)CCN(O)C(=O)CCN1 [FOX 2-2] | 27.62(2) | 19.28(1) | 9.97(1) | 21.5
2 | O=C1CCCN(O)C(=O)CCNC(=O)CCCN(O)C(=O)CCNC(=O)CCCN(O)C(=O)CCN1 [FOX 2-3] | 27.71(1) | 19.27(1) | 9.94(1) | 22.7

Other lines, results leading:

Row | protonation constant logβ, H2L + H+ ↔ H3L [1] | protonation constant logβ, HL + H+ ↔ H2L [1] | protonation constant logβ, L + H+ ↔ HL [1] | pFe(III) [2] | SMILES
3 | 26.53(1) | 19.09(1) | 9.86(1) | 27.0 | O=C1CCCCCN(O)C(=O)CCNC(=O)CCCCCN(O)C(=O)CCNC(=O)CCCCCN(O)C(=O)CCN1 [FOX 2-5]
4 | 27.79(1) | 19.53(1) | 10.19(1) | 24.1 | O=C1CCCCCN(O)C(=O)CCCNC(=O)CCCCCN(O)C(=O)CCCNC(=O)CCCCCN(O)C(=O)CCCN1 [FOX 3-5]
5 | 27.64(1) | 19.21(1) | 9.93(1) | 24.3 | O=C1CCCCN(O)C(=O)CCNC(=O)CCCCN(O)C(=O)CCNC(=O)CCCCN(O)C(=O)CCN1 [FOX 2-4]
